Assay results from ChEMBL document CHEMBL1122402, “Antidiabetic activity of some 1-substituted 3,5-dimethylpyrazoles” (1983).

Organism: Mus musculus
Assay: Hypoglycemic activity in alloxan-diabetic female albino mice expressed as percentage reduction of plasma glucose levels
Assay type: functional
Set-up: concentration or dose not given beside the values
Cc1nn(-c2ccc(S(=O)(=O)NC(=O)Nc3ccccc3)cc2)c(C)c1Br showed a Reduction of under 1%. Compound Cc1cc(C)n(C(=O)c2ccccc2O)n1 has a Reduction of under 1%. CCNC(=O)NS(=O)(=O)c1ccc(NC(=O)n2nc(C)cc2C)cc1 gave a Reduction of 4%. CCNC(=O)NNC(=O)Cn1nc(C)cc1C was tested, and the Reduction was 1%. Compound CCCCNC(=O)Nc1ccc(C(=O)n2nc(C)c(Br)c2C)cc1 has a Reduction of 6%. With CCCCNC(=O)NS(=O)(=O)c1ccc(C(=O)n2nc(C)cc2C)cc1 the Reduction was 2%. In the case of CCNC(=O)NS(=O)(=O)c1ccc(-n2nc(C)c(Br)c2C)cc1, the Reduction was under 1%. Cc1cc(C)n(CC(=O)NNC(=O)NCc2ccccc2)n1 gave a Reduction of under 1%. Cc1nn(C(=O)c2ccc(S(=O)(=O)NC(=O)NCc3ccccc3)cc2)c(C)c1Br was tested, and the Reduction was 2%. Work on CCNC(=O)NS(=O)(=O)c1ccc(C(=O)n2nc(C)c(Br)c2C)cc1 yielded a Reduction of 1%. In the case of CCCNC(=O)NS(=O)(=O)c1ccc(-n2nc(C)c(Br)c2C)cc1, the Reduction was 2%. Cc1cc(C)n(C(=O)Nc2ccc(S(=O)(=O)NC(=O)NC3CCCCC3)cc2)n1 gave a Reduction of 9%. Cc1cc(C)n(C(=O)n2nc(C)cc2C)n1 showed a Reduction of 2.5%. Compound Cc1cc(C)n(C(=O)c2cccnc2)n1 has a Reduction of under 1%. In the case of Cc1cc(C)n(C(=O)Nc2ccc(S(=O)(=O)NC(=O)NCc3ccccc3)cc2)n1, the Reduction was 1%. Cc1nn(C(=O)c2ccc(S(=O)(=O)NC(=O)Nc3ccccc3)cc2)c(C)c1Br showed a Reduction of 3%. In the case of Cc1nn(C(=O)Nc2ccc(S(=O)(=O)NC(=O)NC3CCCCC3)cc2)c(C)c1Br, the Reduction was 4%. Work on CCNC(=O)NS(=O)(=O)c1ccc(NC(=O)n2nc(C)c(Br)c2C)cc1 yielded a Reduction of under 1%. Compound CCCCNC(=O)NS(=O)(=O)c1ccc(NC(=O)n2nc(C)cc2C)cc1 has a Reduction of 7.5%. With Cc1nn(C(=O)c2ccc(NC(=O)NC3CCCCC3)cc2)c(C)c1Br the Reduction was 2.5%. Compound CCCNC(=O)Nc1ccc(C(=O)n2nc(C)c(Br)c2C)cc1 has a Reduction of 5%. Compound CCCNC(=O)NS(=O)(=O)c1ccc(NC(=O)n2nc(C)cc2C)cc1 has a Reduction of 6%. Work on CCCCNC(=O)NS(=O)(=O)c1ccc(NC(=O)n2nc(C)c(Br)c2C)cc1 yielded a Reduction of 2%. Work on Cc1cc(C)n(C(=O)c2ccc(S(=O)(=O)NC(=O)NC3CCCCC3)cc2)n1 yielded a Reduction of under 1%. Compound CCCCNC(=O)NNC(=O)Cn1nc(C)cc1C has a Reduction of 2%. Work on CCNC(=O)NS(=O)(=O)c1ccc(C(=O)n2nc(C)cc2C)cc1 yielded a Reduction of under 1%. Cc1nn(-c2ccc(S(=O)(=O)NC(=O)NC3CCCCC3)cc2)c(C)c1Br gave a Reduction of 2.5%. Work on CCCNC(=O)Nc1ccc(C(=O)n2nc(C)cc2C)cc1 yielded a Reduction of 8%. Work on CCCNC(=O)NNC(=O)Cn1nc(C)cc1C yielded a Reduction of 1%. Cc1cc(C)n(CC(=O)n2nc(C)cc2C)n1 gave a Reduction of 2.5%. Cc1cc(C)n(CC(=O)NNC(=O)NC2CCCCC2)n1 was tested, and the Reduction was 2.5%. For Cc1cc(C)n(C(=O)c2ccc(NC(=O)Nc3ccccc3)cc2)n1, the Reduction was 6%. Work on CCCNC(=O)NS(=O)(=O)c1ccc(C(=O)n2nc(C)cc2C)cc1 yielded a Reduction of under 1%. In the case of CCCNC(=O)NS(=O)(=O)c1ccc(NC(=O)n2nc(C)c(Br)c2C)cc1, the Reduction was 1%. For Cc1cc(C)n(C(=O)c2ccncc2)n1, the Reduction was under 1%. In the case of Cc1cc(C)n(C(=O)c2ccc(NC(=O)NC3CCCCC3)cc2)n1, the Reduction was 20%. Work on Cc1cc(C)n(C(=O)Nc2ccc(S(=O)(=O)NC(=O)Nc3ccccc3)cc2)n1 yielded a Reduction of 2%. In the case of CCCCNC(=O)NS(=O)(=O)c1ccc(-n2nc(C)c(Br)c2C)cc1, the Reduction was 3%. Compound Cc1nn(C(=O)c2ccc(NC(=O)Nc3ccccc3)cc2)c(C)c1Br has a Reduction of under 1%. Compound CCCCNC(=O)Nc1ccc(C(=O)n2nc(C)cc2C)cc1 has a Reduction of 15%. Work on Cc1cc(C)n(C(=O)c2ccc(S(=O)(=O)NC(=O)NCc3ccccc3)cc2)n1 yielded a Reduction of under 1%. Cc1nn(C(=O)c2ccc(S(=O)(=O)NC(=O)NC3CCCCC3)cc2)c(C)c1Br gave a Reduction of 1%. With Cc1cc(C)n(C(=O)c2ccc(S(=O)(=O)NC(=O)Nc3ccccc3)cc2)n1 the Reduction was 2%.
